Measurements taken from patent US20130034496A1, “POSITRON EMISSION TOMOGRAPHY TRACER” (UNIVERSITY OF IOWA RESEARCH FOUNDATION, priority 2011, published 2013).
Read-outs that look alike come from different tables or passages of the source.

Experiments:
MIAPaCa tumor = assay: Animal studies with ^14C-MTHF, distribution of radioactivity; type: in vivo; conditions: nude mice with MIAPaCa tumor; after one hour
cancerous cell lines [1] = assay: Washout of label from cells / retention; type: cell-based, human
Experimental: (§1) Washout of label from cells—After labeling cells grown in four plates as described before, one culture plate was processed and total incorporation was measure by liquid scintillation counter (LSC). This uptake was regarded as 100%. From the remaining three culture plates, medium was removed, cells were washed twice with cold PBS and then normal growth medium (5 mL) was added at 37° for 30 min. The radiotracer released in the medium after 30 min was counted by LSC in triplicate, and cells were replenished with fresh 5 mL medium for next 30 min washing. The release of radiotracer was followed up to 120 min. Measurement of cell growth rate-The cells were seeded at a density of 4×10^4 cells/cm^2 in each of four 6-cm (20 cm^2) plates containing 5 mL medium and placed in incubator maintained at the conditions described above. Once the cells were in log-phase (48 h post plating), two plates were processed to count the total cells. The average number of cells from these plates was regarded as pl. After next 24 h, the remaining two plates were processed, and the total cells were counted again (p2). The doubling time was then calculated by using formula
(§2) To examine the release of radioactivity from these cells, the ^14C-MTHF-loaded cells (after 2 hours uptake) were placed in fresh complete medium containing an excess of unlabeled folate at 37° C. The medium was replaced after every 30 min and the radiotracer released in the medium was measured by LSC. […] In case of cancerous cell lines, the release of the radiotracer was not more than 20%. After 30 min, the release of the radioactivity in the medium was slow and reached to the background value after two successive washings. After washing, the label retained in each cell line was determined and plotted in FIG. 6.

normal cells = assay: Washout of label from cells / retention; type: cell-based, human
Experimental: as §1, §2

cells [2] = assay: Cell cycle analysis, aphidicolin-treated cells; type: cell-based; conditions: cells treated with aphidicolin
Experimental: (§3) Cell cycle analysis—Cells in log phase at the same confluency used for uptake experiments or growth inhibited cells by aphidicolin treatment were harvested using trypsin and washed twice with cold PBS. The cells were suspended as 1×10^6/ml density in PBS and fixed with 70% ethanol at −20° C. The DNA content of the cells was stained with 1 mL of staining buffer containing propidium iodide (5 μg/ml), RNAse A (1 mg/ml), glucose (1 mg/ml) in PBS. The stained cells were filtered through 70 μm nylon strainer and then analyzed for DNA content on FASCan flow-cytometer (Becton Dickinson) using Flo-Jo software.
(§4) Cell cycle vs. MTHF uptake. Biosynthesis of DNA and its precursor bases increases during S-phase of the cell cycle. […] Unsynchronized cells, as used for labeling, were alcohol-fixed and the DNA stained with propidium iodide (PI). DNA content can be used as a proxy for determining cell cycle stage. The DNA content was then analyzed by FACSCAN flow cytometer and data were processed by using Facscaliber software. […] Alternatively, when the cells were treated with aphidicolin, an inhibitor of DNA polymerase-α, the proliferation index is reduced up to 4-fold. […] In another experiment, we treated cells with a chemotherapeutic agent (methotrexate) for 24 h and then incubated with ^14C-MTHF for 1 h and observed a 90-95% decline in uptake relative to cells not treated with methotrexate.

MDA-MB231 [3] = assay: Cell cycle analysis (propidium iodide, flow cytometry); type: cell-based, human; conditions: aphidicolin-arrested cells
Experimental: as §3, §4

MCF-10A [4] = assay: as above; type: cell-based, human; conditions: aphidicolin-arrested cells
Experimental: as §3, §4

HMEC [5] = assay: as above; type: cell-based, human; conditions: aphidicolin-arrested cells
Experimental: as §3, §4

hTERT-HME1 [6] = assay: as above; type: cell-based, human; conditions: aphidicolin-arrested cells
Experimental: as §3, §4

FHC [7] = assay: as above; type: cell-based, human; conditions: aphidicolin-arrested cells
Experimental: as §3, §4

MCF-7 [8] = assay: as above; type: cell-based, human; conditions: aphidicolin-arrested cells
Experimental: as §3, §4

HT-29 [9] = assay: as above; type: cell-based, human; conditions: aphidicolin-arrested cells
Experimental: as §3, §4

cells [10] = assay: ^14C-MTHF uptake after methotrexate treatment; type: cell-based; conditions: methotrexate 24 h, then ^14C-MTHF 1 h
[11] = test system: MIAPaCa, PANC1, H292, A549, SQ20B, Cal 27 and Fadu; assay: Uptake and retention in cancer cell lines (Example 3); type: cell-based
Experimental: Additional studies were performed as described above using the following cell lines:
Pancreatic cancer - MIAPaCa and PANC1
Head and Neck cancer—SQ20B, Cal 27 and Fadu

HMEC [12] = test system: HMEC
MCF-7 [13] = test system: MCF-7
HT-29 [14] = test system: HT-29
hTERT-HME1 [15] = test system: hTERT-HME1
cancerous cell lines [16] = test system: cancerous cell lines
MDA-MB231 [17] = test system: MDA-MB231
FHC [18] = test system: FHC
MCF-10A [19] = test system: MCF-10A
[20] = Experimental: Stability of MTHF in culture medium—Folate-free RPMI 1640 (Invitrogen), fortified with 10% Fetal bovine serum (FBS, Sigma, qualified) (1 mL) in an eppendorf tube (1.5 mL) was spiked with MTHF (10 nM-100 μM) containing ˜0.05 μCi (˜1×10^5 DPM) of ^14C-MTHF as a radiotracer, and incubated under normal culture conditions (see below) for 0, 5, 30, 60, and 120 min. […] The mixture was incubated at 30° C. for 15 min and then filtered through 10K MWCO filter to remove protein. A 100 μl filtrate was analyzed by HPLC to determine the amount of dTMP formed from MTHF. A zorbax column (4.6 mm×15 cm) was eluted with a gradient of 2% to 5% methanol in 100 mM potassium phosphate, pH 6 over 2 min. The isocratic elution at this composition was conducted for 3 min and then changed linearly to 50% methanol in next 5 min. The system was held at this composition for next 5 min, and then increased up to 95% methanol to clean the column. Under these conditions, dUMP was eluted at 3.2 min, dTMP eluted at 5.8 min and MTHF/DHF eluted at 16 min. Identification and quantitation of dTMP was accomplished by comparing the retention time and area under peak of the standard solutions of dTMP.
Stability of MTHF in culture medium—The stability of MTHF might limit its pharmaceutical use. […] The inventors therefore measured the stability of MTHF in culture medium. Concentrations of MTHF ranging from 10 nM to 100 μM, containing a fixed amount of radiotracer (C-14) were incubated in culture medium, under the conditions used for cell incorporation experiments. MTHF remaining in the medium at different time points was measured by quantitatively converting dUMP +^14C-MTHF to ^14C-dTMP by the ecTSase-catalyzed reaction. The amount of ^14C-dTMP formed was then analyzed by HPLC connected with radioactive flow detector (FIG. 2). Data were fitted to a single exponential decay. The analytical assay in which ^14C-MTHF is quantitatively converted to ^14C-dTMP was developed, tested, and used in many of our kinetic isotope effect measurements while studying TSase.

[21] = first 30 min incubation in fresh medium after 2 hours uptake
[22] = normal growing cells, 20 μM MTHF with ^14C tracer

Question: For `Nc1nc2c(c(=O)[nH]1)N1[14CH2]N(c3ccc(C(=O)N[C@@H](CCC(=O)O)C(=O)O)cc3)C[C@H]1CN2` [^14C-MTHF, [11-^14C]—(R)—N^5,N^10-methylene-5,6,7,8-tetrahydrofolate], which distribution of radioactivity/cell (MIAPaCa tumor) is on record?
Answer: most of the radioactivity/cell was in the tumor and kidney

Question: And the “label retained after washing (FIG. 6)” value (cancerous cell lines [1]; MDA-MB231, MCF7, hTERT, HT29, successive 30 min washes, 2 h)?
Answer: retained the highest amount of tracer

Question: What about the release of radiotracer (cancerous cell lines [1]; [21]) of the same compound?
Answer: not more than 20%

Question: And the release of radiotracer (normal cells; [21])?
Answer: > 50%

Question: And the “label retained after washing (FIG. 6)” value (normal cells; non-cancer counterparts, successive 30 min washes, 2 h)?
Answer: retained a much lower, near-background amount of label

Question: Which “reduction of proliferation index” value (cells [2]) does the source give for `C[C@@]1(CO)[C@H](O)CC[C@@]2(C)[C@H]1CC[C@H]1C[C@@H]3C[C@@]12CC[C@]3(O)CO` [aphidicolin] here?
Answer: up to 4 fold

Question: And the “Proliferation index (S + G2M)” value (MDA-MB231 [3])?
Answer: 6%

Question: And the “Proliferation index (S + G2M)” value (MCF-10A [4])?
Answer: 3%

Question: What about the “Proliferation index (S + G2M)” value (HMEC [5]) of the same compound?
Answer: 4%

Question: And the “Proliferation index (S + G2M)” value (hTERT-HME1 [6])?
Answer: 6%

Question: What about the “Proliferation index (S + G2M)” value (FHC [7]) of the same compound?
Answer: 3%

Question: And the “Proliferation index (S + G2M)” value (MCF-7 [8])?
Answer: 5%

Question: And the “Proliferation index (S + G2M)” value (HT-29 [9])?
Answer: 6%

Question: Which “decline in ^14C-MTHF uptake relative to untreated cells” value (cells [10]) does the source give for `CN(Cc1cnc2nc(N)nc(N)c2n1)c1ccc(C(=O)N[C@@H](CCC(=O)O)C(=O)O)cc1` [methotrexate, reference compound] here?
Answer: 90-95%

Question: What about the “effect of methotrexate on tracer uptake” value ([11]; small dose of MTX) of the same compound?
Answer: uptake enhancement

Question: Which MTHF uptake (HMEC [12]; aphidicolin-arrested cells) does the source give for “(R)—N^5,N^10-methylene-5,6,7,8-tetrahydrofolate [MTHF]” here?
Answer: 1.23 ×10^−3/10^6 cells

Question: What about the MTHF uptake (HMEC [12]; [22]) of the same compound?
Answer: 5.98 ×10^−3/10^6 cells

Question: What about the MTHF uptake (MCF-7 [13]; aphidicolin-arrested cells) of the same compound?
Answer: 4.92 ×10^−3/10^6 cells

Question: What about the MTHF uptake (MCF-7 [13]; [22]) of the same compound?
Answer: 80.0 ×10^−3/10^6 cells

Question: What about the MTHF uptake (HT-29 [14]; aphidicolin-arrested cells) of the same compound?
Answer: 3.82 ×10^−3/10^6 cells

Question: What about the “uptake, HT29 versus normal FHC cells” value (HT-29 [14]; colon cancer HT29 versus FHC, 20 μM MTHF) of the same compound?
Answer: at least 30 times

Question: And the MTHF uptake (HT-29 [14]; [22])?
Answer: 48.9 ×10^−3/10^6 cells

Question: What about the MTHF uptake (hTERT-HME1 [15]; aphidicolin-arrested cells) of the same compound?
Answer: 5.74 ×10^−3/10^6 cells

Question: And the MTHF uptake (hTERT-HME1 [15]; [22])?
Answer: 67.3 ×10^−3/10^6 cells

Question: What about the “label uptake, cancerous versus non-cancerous control cell lines” value (cancerous cell lines [16]; HEMC-hTERT, MCF7 and MDA-MB231 versus HMEC, MCF10A, 20 μM MTHF) of the same compound?
Answer: more than 3 fold

Question: What about the “time at which uptake of label reached a maximum level” value (cancerous cell lines [16]; cancerous cell lines, steady state) of the same compound?
Answer: 60 min

Question: And the MTHF uptake (MDA-MB231 [17]; aphidicolin-arrested cells)?
Answer: 3.45 ×10^−3/10^6 cells

Question: What about the MTHF uptake (MDA-MB231 [17]; [22]) of the same compound?
Answer: 81.3 ×10^−3/10^6 cells

Question: And the “uptake and retention of the radioactivity” value ([11]; pancreatic, lung, head and neck cancer cell lines)?
Answer: good uptake and retention

Question: What about the “uptake in FHC cells (FIG. 4)” value (FHC [18]; 20 μM MTHF) of the same compound?
Answer: not higher than background

Question: And the MTHF uptake (FHC [18]; aphidicolin-arrested cells)?
Answer: 0.54 ×10^−3/10^6 cells

Question: What about the MTHF uptake (FHC [18]; [22]) of the same compound?
Answer: 0.94 ×10^−3/10^6 cells

Question: And the MTHF uptake (MCF-10A [19]; aphidicolin-arrested cells)?
Answer: 2.34 ×10^−3/10^6 cells

Question: And the MTHF uptake (MCF-10A [19]; [22])?
Answer: 7.79 ×10^−3/10^6 cells

Question: What about the “rate of decomposition kdec” value ([20]; 10 nM MTHF in culture medium) of the same compound?
Answer: 0.00121 s⁻¹

Question: What about the half-life ([20]; 20 μM MTHF in culture medium) of the same compound?
Answer: 1.3 h

Question: What about the “rate of decomposition kdec” value ([20]; 100 μM MTHF in culture medium) of the same compound?
Answer: 3.23e-05 s⁻¹

Question: And the “stability of MTHF (time)” value ([20]; 100 μM MTHF in culture medium)?
Answer: up to 330 min
